Results: patent US20260191192A1, “ANTIMICROBIAL COMPOSITIONS COMPRISING PELARGONIC ACID” (LANXESS Corporation, priority 2023, published 2026)

Columns and labels:
[1] = test system: mixed bacterial inoculum for home care (Table 7); experiment: Challenge test (preservative efficacy), mixed bacterial inoculum, simplified pool (Table 7); assay type: cell-based, Pseudomonas aeruginosa, Staphylococcus aureus; conditions: dosed 1.0 wt %
Description: (§1) The preservative activity in representative rinse-off and leave-on formulations was evaluated using a modification of the Personal Care Products Council (PCPC—formerly the Cosmetic, Toiletry and Fragrance Association) protocol (Machtiger, et al. 2001. Determination of the Efficacy of Preservation of Non-Eye Area Water Miscible Cosmetic and Toiletry Formulations: Collaborative Study. J of AOAC International. 84:1, 101-109).
(§2) This evaluation was conducted using a four week, two or three-cycle (i.e., two-cycle for personal care and three-cycle for home care applications) microbial preservative efficacy test (i.e., challenge test) at 25° C. to determine the preservative efficacy of each treatment. Phenoxyethanol, benzyl alcohol and pelargonic acid were tested alone and in various combinations. The pelargonic acid used in the testing was purchased from Sigma-Aldrich. Combinations of phenoxyethanol or benzyl alcohol with benchmark multifunctional booster compounds were also tested for comparison. The preservative and booster ingredients were dosed and mixed thoroughly at room temperature into various formulations, specifically different personal care formulations including a lotion (leave-on, Table 1), a micellar water (rinse-off, Table 2), and a body wash formulation (rinse-off, Table 3) and different home care formulations including a manual dishwashing formulation (Table 4) and a liquid laundry detergent formulation (Table 5). […] Carbomers are a commonly used synthetic rheological modifier in personal care products. The formulation below was made by heating the aqueous (A) and oil (B) phases separately to 75-80° C. The oil phase was then poured into the aqueous phase and mixed by a homogenizer at approximately 45° C. The formed oil-in-water emulsion was cooled to room temperature. Triethanolamine and/or diluted sodium hydroxide was used to adjust the final pH to 6.3 or 6.5 (as indicated in the examples below).
(§3) After dosing, the samples were divided into two separate five gram aliquots. One aliquot was inoculated with 50 μl of a diluted bacterial pool, and the second aliquot was inoculated with 50 μl of a diluted fungal pool as described below. Unpreserved product samples were included as a growth control.
(§4) For personal care products, a mixed bacterial inoculum was prepared using 24-hour cultures of the test bacteria (Table 6) grown in trypticase soy broth (TSB). For home care products, a mixed bacterial inoculum was prepared using 24-hour cultures of the test bacteria either from Table 6 (full pool) or Table 7 (simplified pool) grown in trypticase soy broth (TSB). Details are disclosed in the home care examples below. Equal volumes of the bacterial test strains were combined and diluted one to ten in phosphate buffer to obtain an inoculum of approximately 5×10^7 to 5×10^8 colony forming units per ml (cfu/ml). The test samples were inoculated with 1% of the mixed bacterial inoculum. For both personal care and home care products, a mixed fungal inoculum was prepared using cell suspensions of the yeast Candida albicans ATCC #10231 and the mold Aspergillus brasiliensis ATCC #16404 in phosphate buffer. Equal volumes of the fungal test strains were combined and diluted one to ten with phosphate buffer to obtain an inoculum of approximately 5×10^6 to 5×10^7 cfu/ml. The test samples were inoculated with 1% of the mixed fungal inoculum.
(§5) For personal care products, the samples were subjected to two microbial challenges at time zero and inoculated a second time after seven days. For home care products, the samples were subjected to three microbial challenges at time zero and inoculated a second and third time after seven and fourteen days, respectively. The number of microorganisms added to each sample was determined by a standard Most Probable Number (MPN) determination in Trypticase Soy Broth (TSB) for bacteria and Potato Dextrose Broth (PDB) for fungi. Samples were incubated at 25° C. for the test duration of four weeks.

[2] = test system: mixed bacterial inoculum (Table 6); experiment: Challenge test (preservative efficacy), mixed bacterial inoculum, full pool (Table 6); assay type: cell-based
Description: as §1, §2, §3, §4, §5

[3] = test system: bacteria (Table 6 pool) and fungi; experiment: Challenge test, overall result (full bacteria pool and fungi); assay type: cell-based
Description: as §1, §2, §3, §4, §5

[4] = test system: mixed fungal inoculum: Candida albicans ATCC #10231 and Aspergillus brasiliensis ATCC #16404; experiment: Challenge test (preservative efficacy), mixed fungal inoculum; assay type: cell-based
Description: as §1, §2, §3, §4, §5

[5] = test system: bacteria (Table 7 pool) and fungi; experiment: Challenge test, overall result (simplified bacteria pool and fungi); assay type: cell-based; conditions: dosed 1.0 wt %
Description: as §1, §2, §3, §4, §5

[6] = ZenBio Cupric Ion Chelating (CIC) Assay; assay type: physicochemical; conditions: calculated from a EDTA calibration curve, Pelargonic Acid at 775 μM
Description: The chelation property of the pelargonic acid was measured by using the ZenBio Cupric Ion Chelating (CIC) Assay (Cat #AOX-16). The assay measured the capacity of the pelargonic acid to chelate free cupric ions in solution, thereby inhibiting Cu(II) binding to pyrocatechol violet (PV) for generating a highly colored complex. The absorbance of the Cupric-PV complex was measured at a wavelength of 632 nm. The cupric ion chelating activity was determined as the percent of total PV over the Cu(II) binding. Ethylenediaminetetraacetic acid (EDTA), a well-known chelating agent, was used as a positive control. A series of EDTA with 7 different concentrations from 0 to 1000 μM were prepared and their corresponding absorbance measured and used as the calibration curve (Cupric ion chelating (%) vs. EDTA concentration). Percent cupric ion chelating was determined following the following calculations and Equation 1. The background absorbance value by averaging the absorbance values of the three background wells (no CuSO4 or sample). The average background absorbance was then subtracted from all the sample absorbance values. The maximal absorbance value (Absmax) was determined by averaging the absorbance values of the three wells containing CuSO4, PV and assay buffer. Abstest in Equation 1 is the absorbance of the test sample.
The calibration curve (Cupric ion chelating (%) vs. EDTA concentration) was fit by using a polynomial curve after log 10 transforming the concentrations (R2>0.98).

[7] = body wash, pH 6.5, Example 1E, dosed 0.5 wt %
[8] = lotion with carbomer, pH 6.3, Example 1A, dosed 0.5 wt %
[9] = lotion with carbomer, pH 6.3, Example 1A, dosed 1.0 wt %
[10] = lotion with carbomer, pH 6.5, Example 1I, total dosing 0.8 wt %
[11] = liquid laundry detergent, pH 7.5, Example 1H, dosed 1.0 wt %
[12] = micellar water, pH 6.0, Example 1B, dosed 0.5 wt %
[13] = micellar water, pH 6.0, Example 1C, dosed 0.3 wt %

SMILES: CCCCCCCCC(=O)O [Pelargonic Acid, nonanoic acid]
- Bacteria growth rating Result ([1]; liquid laundry detergent, pH 7.5, simplified bacteria pool, Example 1G): Fail (growth rating score caused by bacteria of 2 or more at days 21-28 of the testing period)
- Bacteria growth rating Result ([1]; manual dishwashing formulation, pH 5.5, simplified bacteria pool, Example 1F): Fail (growth rating score caused by bacteria of 2 or more at days 21-28 of the testing period)
- Bacteria growth rating Result [2, 7]: Fail (growth rating score caused by bacteria of 2 or more at days 21-28 of the testing period)
- Bacteria growth rating Result ([2]; liquid laundry detergent, pH 7.5, full bacteria pool, Example 1H, dosed 1.0 wt %): Fail (growth rating score caused by bacteria of 2 or more at days 21-28 of the testing period)
- Bacteria growth rating Result [2, 8]: Fail (growth rating score caused by bacteria of 2 or more at days 21-28 of the testing period)
- Bacteria growth rating Result [2, 9]: Fail (growth rating score caused by bacteria of 2 or more at days 21-28 of the testing period)
- Bacteria growth rating Result ([2]; lotion with carbomer, pH 6.3, Example 1D, dosed 0.8 wt %): Fail (growth rating score caused by bacteria of 2 or more at days 21-28 of the testing period)
- Bacteria growth rating Result [2, 10]: Fail (growth rating score caused by bacteria of 2 or more at days 21-28 of the testing period)
- Bacteria growth rating Result ([2]; micellar water, pH 6.0, bacteria inoculation ~10^7 cfu/ml, Example 1B, dosed 0.5 wt %): Fail (growth rating score caused by bacteria of 2 or more at days 21-28 of the testing period)
- Bacteria growth rating Result ([2]; micellar water, pH 6.0, bacteria inoculation ~10^8 cfu/ml, Example 1C, dosed 0.3 wt %): Fail (growth rating score caused by bacteria of 2 or more at days 21-28 of the testing period)
- Overall Result [3, 7]: Fail
- Overall Result [3, 11]: Fail
- Overall Result [3, 8]: Fail
- Overall Result [3, 9]: Fail
- Overall Result [3, 10]: Fail
- Overall Result [3, 12]: Fail
- Overall Result [3, 13]: Fail
- Fungi growth rating Result [4, 7]: Pass (growth rating score caused by fungi of 2 or less at days 21-28 of the testing period)
- Fungi growth rating Result ([4]; liquid laundry detergent, pH 7.5, Example 1G, dosed 1.0 wt %): Fail (growth rating score caused by fungi of more than 2 at days 21-28 of the testing period)
- Fungi growth rating Result [4, 11]: Fail (growth rating score caused by fungi of more than 2 at days 21-28 of the testing period)
- Fungi growth rating Result [4, 8]: Fail (growth rating score caused by fungi of more than 2 at days 21-28 of the testing period)
- Fungi growth rating Result [4, 9]: Fail (growth rating score caused by fungi of more than 2 at days 21-28 of the testing period)
- Fungi growth rating Result [4, 10]: Fail (growth rating score caused by fungi of more than 2 at days 21-28 of the testing period)
- Fungi growth rating Result ([4]; manual dishwashing formulation, pH 5.5, Example 1F, dosed 1.0 wt %): Fail (growth rating score caused by fungi of more than 2 at days 21-28 of the testing period)
- Fungi growth rating Result [4, 12]: Fail (growth rating score caused by fungi of more than 2 at days 21-28 of the testing period)
- Fungi growth rating Result [4, 13]: Fail (growth rating score caused by fungi of more than 2 at days 21-28 of the testing period)
- Overall Result ([5]; liquid laundry detergent, pH 7.5, Example 1G): Fail
- Overall Result ([5]; manual dishwashing formulation, pH 5.5, Example 1F): Fail
- Calculated EDTA equivalent [6]: 667 µM
